Experimental data from US7084151B2 (Ligand Pharmaceuticals Incorporated, priority 2002, dated 2006).
Read-outs that look alike come from different tables or passages of the source.

Legend:
PR [1] = target: T1, PR (Homo sapiens, UniProt P06401); assay: Cotransfection assay, PR agonist activity in CV-1 cells; type: cell-based; conditions: for Emax: CV-1, read-out: PR Agonist CV-1 Cells Efficacy
T1 construct: expressed in transfected cells; host or cells: CV-1 cells (African green monkey kidney fibroblasts), transiently transfected
T1 sequence (P06401 1-933): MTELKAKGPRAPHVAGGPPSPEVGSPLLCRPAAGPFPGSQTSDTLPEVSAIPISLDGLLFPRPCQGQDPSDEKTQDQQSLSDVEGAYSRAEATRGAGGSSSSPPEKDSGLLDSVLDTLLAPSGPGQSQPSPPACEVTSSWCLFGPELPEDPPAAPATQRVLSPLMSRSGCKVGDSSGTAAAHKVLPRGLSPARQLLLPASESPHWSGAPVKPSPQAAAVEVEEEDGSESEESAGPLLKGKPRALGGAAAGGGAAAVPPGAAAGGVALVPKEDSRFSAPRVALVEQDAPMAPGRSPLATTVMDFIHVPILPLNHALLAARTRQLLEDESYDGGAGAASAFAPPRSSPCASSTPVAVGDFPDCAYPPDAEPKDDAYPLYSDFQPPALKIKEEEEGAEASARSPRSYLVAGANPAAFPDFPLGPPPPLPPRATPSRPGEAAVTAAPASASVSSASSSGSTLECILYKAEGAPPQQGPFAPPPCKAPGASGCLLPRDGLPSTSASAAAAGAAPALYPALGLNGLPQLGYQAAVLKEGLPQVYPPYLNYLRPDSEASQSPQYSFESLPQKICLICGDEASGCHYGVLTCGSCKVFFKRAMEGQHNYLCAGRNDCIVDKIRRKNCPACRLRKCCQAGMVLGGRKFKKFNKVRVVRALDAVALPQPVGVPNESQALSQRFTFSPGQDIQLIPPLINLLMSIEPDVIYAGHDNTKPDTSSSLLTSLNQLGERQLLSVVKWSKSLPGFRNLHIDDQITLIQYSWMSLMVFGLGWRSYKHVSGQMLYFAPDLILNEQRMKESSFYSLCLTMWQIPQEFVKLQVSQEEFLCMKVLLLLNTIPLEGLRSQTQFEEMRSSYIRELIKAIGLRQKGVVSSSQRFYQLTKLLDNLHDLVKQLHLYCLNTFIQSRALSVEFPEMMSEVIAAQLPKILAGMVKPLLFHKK
Method: (§1) Briefly, the cotransfection assays were carried out in CV-1 cells (African green monkey kidney fibroblasts), which were transiently transfected, by the standard calcium phosphate coprecipitation procedure (Berger, et al., J. Steroid Biochem. Mol. Bio. 1992, 41, 733–738) with the Plasmid containing receptor, MTV-LUC reporter, pRS-β-Gal, and filler DNA (Rous sarcoma virus chloramphenicol acetyltransferase). […] All the cotransfection experiments were carried out in 96-well plates by automation (Beckman Biomomek automated workstation).

PR [2] = target: T1, PR; assay: Cotransfection assay, PR antagonist activity in CV-1 cells; type: cell-based; conditions: for Emax: percent maximal response relative to reference antagonist, read-out: PR Antagonist CV-1 Cells Efficacy
Method: as §1

hPR-A = target: T2, hPR-A (Homo sapiens, UniProt P06401); assay: Receptor competitive binding assay; conditions: read-out: PR Binding Ki
T2 sequence (P06401 1-769 isoform P06401-2): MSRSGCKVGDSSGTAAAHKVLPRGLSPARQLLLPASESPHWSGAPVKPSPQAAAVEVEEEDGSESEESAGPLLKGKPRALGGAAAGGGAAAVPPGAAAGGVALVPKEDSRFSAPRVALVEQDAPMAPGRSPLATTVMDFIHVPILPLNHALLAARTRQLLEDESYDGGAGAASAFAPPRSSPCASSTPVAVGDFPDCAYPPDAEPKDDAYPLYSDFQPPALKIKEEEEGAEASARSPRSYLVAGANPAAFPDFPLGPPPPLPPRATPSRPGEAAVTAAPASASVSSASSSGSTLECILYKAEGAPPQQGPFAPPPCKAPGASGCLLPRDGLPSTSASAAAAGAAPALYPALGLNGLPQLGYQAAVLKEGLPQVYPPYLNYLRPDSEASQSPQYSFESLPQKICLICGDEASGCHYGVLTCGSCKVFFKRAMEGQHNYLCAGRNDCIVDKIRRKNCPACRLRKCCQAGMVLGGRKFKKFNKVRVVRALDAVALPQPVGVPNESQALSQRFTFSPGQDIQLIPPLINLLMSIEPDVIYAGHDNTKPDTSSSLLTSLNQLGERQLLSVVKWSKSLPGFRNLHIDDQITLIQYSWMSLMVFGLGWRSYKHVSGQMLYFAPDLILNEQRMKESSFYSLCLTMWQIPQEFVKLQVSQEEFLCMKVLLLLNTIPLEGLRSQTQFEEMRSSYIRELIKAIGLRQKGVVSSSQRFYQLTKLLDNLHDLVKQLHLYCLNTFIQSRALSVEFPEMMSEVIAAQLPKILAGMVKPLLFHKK
From the text: The preparation of receptor binding assays for hPR-A was described in literature (Pathirana, et al., Mol. Pharm. 1995, 47, 630–635.)

[3] = CV-1 cells, MTV-LUC reporter, read-out: PR Agonist CV-1 Cells Potency (EC50)
[4] = CV-1 cells, MTV-LUC reporter, read-out: PR Antagonist CV-1 Cells Potency (IC50)

| Structure (SMILES) | EC50 (PR [1]) | Emax (PR [1]) | IC50 (PR [2]) | Emax (PR [2]; CV-1 cells) | Ki (hPR-A) | melting point | EC50 (PR [1]; [3]) | IC50 (PR [2]; [4]) | PR Agonist CV-1 Cells Efficacy (PR [1]; CV-1 cells, percent maximal response relative to progesterone) |
| --- | --- | --- | --- | --- | --- | --- | --- | --- | --- |
| CC1=CC(C)(C)Nc2ccc3c(c21)C(=C1SCCCS1)Oc1ccc(F)cc1-3 [Compound 10, 9-Fluoro-5-(1,3-dithia-2-cyclohexylidene)-1,2-dihydro-2,2,4-trimethyl-5H-chromeno[3,4-f]quinoline] | 2 nM | 144% | > 1000 nM | < 20% | 6.3 nM | 120 to 122 °C | – | – | – |
| COc1ccc2c(c1)OC(=C1SCCCS1)c1c-2ccc2c1C(C)=CC(C)(C)N2 [Compound 13, 8-methoxy-5-(1,3-dithia-2-cyclohexylidene)-1,2-dihydro-2,2,4-trimethyl-5H-chromeno[3,4-f]quinoline] | – | 56% | – | < 20% | 14 nM | – | 32 nM | > 1000 nM | – |
| CC1=CC(C)(C)Nc2ccc3c(c21)C(=C1SCCCS1)Oc1c(F)cc(F)cc1-3 [Compound 15, 7,9-difluoro-5-(1,3-dithia-2-cyclohexylidene)-1,2-dihydro-2,2,4-trimethyl-5H-chromeno[3,4-f]quinoline] | – | 155% | – | < 20% | 3.7 nM | – | 5.3 nM | > 1000 nM | – |
| CC1=CC(C)(C)Nc2ccc3c(c21)C(=C1SCCCS1)Oc1c(F)cccc1-3 [Compound 17, 7-fluoro-5-(1,3-dithia-2-cyclohexylidene)-1,2-dihydro-2,2,4-trimethyl-5H-chromeno[3,4-f]quinoline] | – | 107% | – | < 20% | 4.3 nM | – | 11 nM | > 1000 nM | – |
| CC1=CC(C)(C)Nc2ccc3c(c21)C(=C1CCCCC1)Oc1c(F)cccc1-3 [Compound 19, 7-fluoro-5-cyclohexylidene-1,2-dihydro-2,2,4-trimethyl-5H-chromeno[3,4-f]quinoline] | – | 48% | – | – | 74 nM | – | 38 nM | – | – |
| CC1=CC(C)(C)Nc2ccc3c(c21)C(=C1CCCCC1)Oc1c(F)cc(F)cc1-3 [Compound 20, 7,9-difluoro-5-cyclohexylidene-1,2-dihydro-2,2,4-trimethyl-5H-chromeno[3,4-f]quinoline] | – | 82% | – | < 20% | 39 nM | – | 16 nM | > 1000 nM | – |
| CC1(C)C=Cc2c(ccc3c2C(=C2SCCCS2)Oc2c(F)cccc2-3)N1 [Compound 21, 7-fluoro-5-(1,3-dithia-2-cyclohexylidene)-1,2-dihydro-2,2-dimethyl-5H-chromeno[3,4-f]quinoline] | – | 45% | – | – | – | – | 32 nM | – | – |
| CC1=CC(C)(C)Nc2ccc3c(c21)C(=C1C=CCCC1)Oc1c(F)cccc1-3 [Compound 23, 7-fluoro-5-(2-cyclohexenylidene)-1,2-dihydro-2,2,4-trimethyl-5H-chromeno[3,4-f]quinoline] | – | 70% | – | < 20% | 22 nM | – | 35 nM | > 1000 nM | – |
| CC(=O)[C@H]1CC[C@H]2[C@@H]3CCC4=CC(=O)CC[C@]4(C)[C@H]3CC[C@]12C [Prog, progesterone, reference compound] | – | 100% | – | < 20% | – | – | – | – | – |
| CC#C[C@]1(O)CC[C@H]2[C@@H]3CCC4=CC(=O)CCC4=C3[C@@H](c3ccc(N(C)C)cc3)C[C@@]21C [RU486, mifepristone, reference compound] | – | – | – | – | – | – | – | – | na (na = not active (i.e. efficacy of <20 and potency of >1,000)) |
| CN(C)c1ccc([C@H]2C[C@]3(C)[C@@H](CC[C@]3(O)CCCO)[C@@H]3CCC4=CC(=O)CCC4=C32)cc1 [ZK299, reference compound] | – | < 20% | – | 99% | – | – | – | – | – |
